Experimental data: the NIST ThermoML archive (doi:10.1021/je500358r)
± gives the expanded uncertainty stated by the source.

Experiments:
[1] = for vapor or sublimation pressure: Liquid, Gas chromatography
[2] = molar enthalpy of vaporization or sublimation; conditions: 298 K; Liquid; DSC
[3] = Molar enthalpy of transition or fusion; conditions: DSC

Row | vapor or sublimation pressure ([1]; 283.15 K) | vapor or sublimation pressure ([1]; 288.15 K) | vapor or sublimation pressure ([1]; 293.15 K) | vapor or sublimation pressure ([1]; 298.15 K) | vapor or sublimation pressure ([1]; 303.15 K) | vapor or sublimation pressure ([1]; 308.15 K) | vapor or sublimation pressure ([1]; 313.15 K) | molar enthalpy [2] | Normal melting temperature ([1]; Crystal 1, DTA) | Triple point temperature ([1]; Crystal 2, DTA) | Molar enthalpy of transition or fusion ([3]; Crystal 1) | Molar enthalpy of transition or fusion ([3]; Crystal 2) | Structure (SMILES)
1 | 0.037 ± 0.004 kPa | 0.055 ± 0.006 kPa | 0.079 ± 0.008 kPa | 0.113 ± 0.011 kPa | 0.159 ± 0.016 kPa | 0.222 ± 0.022 kPa | 0.306 ± 0.031 kPa | 12.5 ± 1.1 kcal/mol | – | – | – | – | CC(C)CN(CC(C)C)CC(C)C [triisobutylamine]
2 | 7e-08 ± 2e-08 kPa | 1.4e-07 ± 2e-08 kPa | 2.7e-07 ± 4e-08 kPa | 5e-07 ± 6e-08 kPa | 9.3e-07 ± 1e-07 kPa | 1.7e-06 ± 1.8e-07 kPa | 3.03e-06 ± 3.1e-07 kPa | 22.1 ± 0.837 kcal/mol | 92.5 ± 0.4 °C | 342.5 ± 0.9 K | 5.5 ± 0.127 kcal/mol | 0.264 ± 0.0502 kcal/mol | c1ccc(CN(Cc2ccccc2)Cc2ccccc2)cc1 [benzenemethanamine, N,N-bis(phenylmethyl)-]
3 | 2e-08 ± 1e-08 kPa | 3e-08 ± 1e-08 kPa | 7e-08 ± 2e-08 kPa | 1.4e-07 ± 2e-08 kPa | 2.8e-07 ± 4e-08 kPa | 5.3e-07 ± 6e-08 kPa | 1e-06 ± 1.1e-07 kPa | 23.9 ± 0.837 kcal/mol | – | – | – | – | CCCCCCCCN(CCCCCCCC)CCCCCCCC [trioctylamine]
4 | 1.7e-05 ± 2e-06 kPa | 3.1e-05 ± 3e-06 kPa | 5.4e-05 ± 5e-06 kPa | 9.2e-05 ± 9e-06 kPa | 0.000153 ± 1.5e-05 kPa | 0.000253 ± 2.5e-05 kPa | 0.00041 ± 4.1e-05 kPa | 18.5 ± 1 kcal/mol | – | – | – | – | CCCCCCCCCCCCCCN(C)C [1-tetradecanamine, N,N-dimethyl-]
5 | 0.199 ± 0.02 kPa | 0.278 ± 0.028 kPa | 0.384 ± 0.038 kPa | 0.524 ± 0.052 kPa | 0.709 ± 0.071 kPa | 0.949 ± 0.095 kPa | 1.259 ± 0.13 kPa | – | – | – | – | – | CCCN(CCC)CCC [tripropylamine]
6 | 2e-07 ± 1e-07 kPa | 4e-07 ± 1e-07 kPa | 7e-07 ± 1e-07 kPa | 1.4e-06 ± 2e-07 kPa | 2.5e-06 ± 3e-07 kPa | 4.5e-06 ± 5e-07 kPa | 7.8e-06 ± 8e-07 kPa | 21.3 ± 0.669 kcal/mol | – | – | – | – | CCN(CCCc1ccccc1)CCCc1ccccc1 [N-ethyl-3-phenyl-N-(3-phenylpropyl)propan-1-amine]
7 | 2e-06 ± 1e-06 kPa | 3e-06 ± 1e-06 kPa | 6e-06 ± 1e-06 kPa | 1.1e-05 ± 1e-06 kPa | 1.9e-05 ± 2e-06 kPa | 3.2e-05 ± 3e-06 kPa | 5.5e-05 ± 6e-06 kPa | 20.3 ± 2.87 kcal/mol | – | – | – | – | CCCCCCCCCCCCCCCCN(C)C [1-hexadecanamine, N,N-dimethyl-]
8 | 0.008 ± 0.001 kPa | 0.013 ± 0.001 kPa | 0.019 ± 0.002 kPa | 0.028 ± 0.003 kPa | 0.042 ± 0.004 kPa | 0.06 ± 0.006 kPa | 0.087 ± 0.009 kPa | 13.9 ± 0.98 kcal/mol | – | – | – | – | CCCCN(CCCC)CCCC [tributylamine]

Row | Structure (SMILES) | vapor or sublimation pressure ([1]; 283.15 K) | vapor or sublimation pressure ([1]; 288.15 K) | vapor or sublimation pressure ([1]; 293.15 K) | vapor or sublimation pressure ([1]; 298.15 K) | vapor or sublimation pressure ([1]; 303.15 K) | vapor or sublimation pressure ([1]; 308.15 K) | vapor or sublimation pressure ([1]; 313.15 K) | molar enthalpy [2] | Normal melting temperature ([1]; Crystal 1, DTA) | Triple point temperature ([1]; Crystal 2, DTA) | Molar enthalpy of transition or fusion ([3]; Crystal 1) | Molar enthalpy of transition or fusion ([3]; Crystal 2)
9 | C[C@@H](Cc1ccccc1)N(C)Cc1ccccc1 [(S)-N-benzyl-N-methyl-1-phenylpropan-2-amine] | 8e-06 ± 1e-06 kPa | 1.4e-05 ± 2e-06 kPa | 2.4e-05 ± 2e-06 kPa | 4e-05 ± 4e-06 kPa | 6.7e-05 ± 7e-06 kPa | 0.000111 ± 1.1e-05 kPa | 0.000179 ± 1.8e-05 kPa | 18.5 ± 0.55 kcal/mol | – | – | – | –
10 | C#CCN(C)[C@H](C)Cc1ccccc1 [(R)-N-methyl-N-(1-phenylpropan-2-yl)prop-2-yn-1-amine] | 0.0006 ± 0.0001 kPa | 0.001 ± 0.0001 kPa | 0.0016 ± 0.0002 kPa | 0.0025 ± 0.0003 kPa | 0.0038 ± 0.0004 kPa | 0.0058 ± 0.0006 kPa | 0.0086 ± 0.0009 kPa | 15.4 ± 1.12 kcal/mol | – | – | – | –
